Experimental findings from EP0022117A2, “Metoclopramid resinate and medicament containing it” (Trenker, Ady, priority 1979, dated 1981) are described below.

A short description of series [1]: plasma half-life in the rat. In kind it is in vivo. To be noted: chez le rat, read-out: demi-vie plasmatique.
Series [2] in a line: plasma half-life in the dog. To be noted: chez le chien, read-out: demi-vie plasmatique. It is filed as in vivo.

On to `CCN(CC)CCNC(=O)c1cc(Cl)c(N)cc1OC` [Metoclopramide], for which the half-life in series [1] and in series [2] was 1 to 1.5 h in each case.
